Patent US9289365B2, “Compositions and methods for stimulating collagen synthesis in the skin” (Avon Products, Inc., priority 2011, dated 2016)

test system: Human dermal fibroblasts; assay: Stimulation of collagen synthesis in human dermal fibroblasts, procollagen type I C-peptide (PIP) EIA; assay type: cell-based; conditions: compound at 0.0005% in DMSO, triplicate, 48-hour incubation; procollagen type I C-peptide in conditioned medium; increase in collagen over DMSO control
Description: The compounds 1-5, and 8-9 were assayed for stimulation of collagen synthesis as follows. Human dermal fibroblasts (Cascade Biologics, Portland, Oreg.) were plated at 10,000 cells/well in 96-well culture plates in supplemented medium (DMEM, 10% Fetal Bovine Serum, 1% Penicillin/Streptomycin and 1% L-Glutamine) overnight in humidified atmosphere of 10% CO2 at 37° C. The next day, the medium was replaced with fresh medium (DMEM, 1% Penicillin/Streptomycin and 1% L-Glutamine) and the compounds dissolved DMSO were added to the wells in triplicate at a concentration of 0.0005%, DMSO solution was used a control. Following 48-hour incubation, the plates were removed from the incubator and the medium from each well was collected for the procollagen assay.
Collagen production was measured using procollagen type I C-peptide (PIP) EIA kit (Takara Bio, Inc., Japan). Briefly, the conditioned medium was diluted 1:10 in Sample Diluent, 20 μl of diluted conditioned medium and 100 μl of antibody-POD conjugate solution were added to the wells of the Takara HASA plate. The ELISA plate was incubated at 37° C. for 3 hours before the wells were washed four times with 400 μl of 1×PBS. At the end of wash, 100 μl of substrate solution (supplied with kit) was added to the wells and incubated at room temperature for 15 minutes. The reaction was stopped by adding 100 μl of 1N sulfuric acid to the wells. The absorbance was measured on a spectrophotometer at 450 nm wavelength. The amount of procollagen peptide in the conditioned medium was calculated from the standard curve. The stimulation of collagen production was shown as an increase in collagen over the control.

| SMILES | % Collagen Stimulation [%] |
| --- | --- |
| CCc1c(C(=O)N2CCCC2)cnn1-c1ccccc1Cl [Compound 1] | 73.2 |
| Cc1c(C(=O)N2CCCC2)c(CC(C)C)nn1-c1ccccc1 [Compound 2] | 23.1 |
| CCCc1c(C(=O)N2CCOCC2)cnn1-c1ccccc1Cl [Compound 3] | 13.5 |
| Cc1c(C(=O)N2CCCC2)cnn1-c1ccccc1 [Compound 4] | 12.5 |
| CCCc1c(C(=O)N2CCCC2)cnn1-c1ccccc1C [Compound 5] | 45.23 |
| Cc1ccccc1N1CCN(C(=O)c2cc(-c3ccccc3)nn2-c2ccc(Cl)c(Cl)c2)CC1 [Compound 8] | 83.7 |
| Cc1ccccc1N1CCN(C(=O)c2cc(-c3cccn3C)nn2-c2ccccc2Cl)CC1 [Compound 9] | 62.2 |
